The target in the first test is T1, c-Myc-Max heterodimers (Homo sapiens, UniProt P01106).
T1 construct: c-Myc bHLH-ZIP domain (residues 353-437); His6-TEV protease substrate tag; made in house; host or cells: bacteria (pET151 vector for Myc)
T1 sequence (P01106 368-452, one chain of several): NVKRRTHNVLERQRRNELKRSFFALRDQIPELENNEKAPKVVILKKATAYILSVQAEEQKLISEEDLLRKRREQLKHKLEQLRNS
Description: Electrophoretic mobility shift assay (EMSA) of c-Myc-Max dimerization and DNA binding. To be noted: Table 1; 100 μM compound; Myc-Max/DNA band intensity relative to control; read-out: Inhibition at 100 μM (%). As for the experimental part:
The ability of a small-molecule to interfere with c-Myc-Max dimerization is conveniently assessed through the disruption of the c-Myc-Max/DNA ternary complex by an electrophoretic mobility shift assay (EMSA) using fluorescently-labelled DNA, and subsequently quantified by densitometry.(23) Accordingly, a 100-member library was screened for the ability to disrupt the c-Myc-Max dimer.
These were performed essentially as described previously (23). Briefly, Ni^+-agarose-purified His6-tagged c-Myc bHLH-ZIP domain (residues 353-437) was used for all binding assays as was the His6-tagged 151 residue isoform of Max, otherwise referred to as Max(S) (residues 2-151) (21). For each binding reaction, the proteins were allowed to heterodimerize at a concentration of 30 nM each in the presence of 20 nM of a 5′-HEX-tagged double-stranded 22-base pair oligonucleotide 5′-hexachlorofluoresceine-[…]-3′ (SEQ ID NO: 1) containing a consensus c-Myc binding site (CACGTG) and the indicated concentration of small molecule inhibitor. Control reactions contained the same oligonucleotide in the presence of 60 nM of the 160 residue isoform of Max referred to as Max(L) (21). All binding reactions were prepared in a buffer consisting of PBS (pH 7.3), 1 mmol/L EDTA, 0.1% NP40, 5% glycerol, 1 mmol/L DTT, and 0.4 mg/mL bovine serum albumin. Electrophoresis was performed on 8% polyacrylamide/bisacrylamide (80:1) gels in […] (23). Each reaction was run on at least three separate occasions.
EMSAs were performed essentially as described utilizing bacterially-expressed recombinant proteins purified nearly to homogeneity.(23) Experiments with Max homodimers used the His6-tagged 160 amino acid isoform of the protein, termed Max(L), which homodimerizes and binds DNA well. For studies with Myc-Max heterodimers, the His6-tagged 151 residue isoform of Max [Max(S)] was used, which binds DNA well as a heterodimer with Myc but poorly as a homodimer.(23) Recombinant Myc protein, expressed in the pET151 vector, consisted of the His6-TEV protease substrate-tagged 85 amino acid bHLH-ZIP domain. (23) Each protein was purified by Ni-agarose affinity chromatography as previously described. (23) The His6-TEV tag was removed from the Myc protein by TEV protease cleavage followed by re-purification using Ni-agarose affinity chromatography to remove the His6-TEV protease and the cleaved His6-TEV tag as previously described. Binding assays were performed with 30 nM of each protein and 30 nM of a 6-carboxy-2′,4,4′,5′,7,7′-hexachlorofluorescein (HEX)-tagged double-stranded oligonucleotide containing a consensus Myc binding site (IDT, Coralville, Iowa).(23)
For `O=[N+]([O-])c1ccc(NC2CCCCC2)c2nonc12` [Compound 3b, N-Cyclohexyl-7-nitrobenzo[c][1,2,5]oxadiazol-4-amine], the inhibition at 100 µM is 11%. Still for that read-out and setting: the same measure for `O=[N+]([O-])c1ccc(NCc2ccccc2)c2nonc12` [Compound 3c, N-Benzyl-7-nitrobenzo[c][1,2,5]oxadiazol-4-amine]: 0%; for `O=[N+]([O-])c1ccc(N2CCCCC2)c2nonc12` [Compound 3d, 4-Nitro-7-(piperidin-1-yl)benzo[c][1,2,5]oxadiazole]: 10%; for `Cc1ccccc1Nc1ccc([N+](=O)[O-])c2nonc12` [Compound 3e, 7-Nitro-N-(o-tolyl)benzo[c][1,2,5]oxadiazol-4-amine]: 11%.

In the case of `O=[N+]([O-])c1ccc(Nc2ccccc2Br)c2nonc12` [Compound 3f, N-(2-Bromophenyl)-7-nitrobenzo[c][1,2,5]oxadiazol-4-amine], the inhibition at 100 µM was roughly 40%. The same measure, in the same setting: to `O=[N+]([O-])c1ccc(Nc2ccccc2O)c2nonc12` [Compound 3g, 2-((7-Nitrobenzo[c][1,2,5]oxadiazol-4-yl)amino)phenol] belongs 13%; to `COc1ccccc1Nc1ccc([N+](=O)[O-])c2nonc12` [Compound 3h, N-(2-Methoxyphenyl)-7-nitrobenzo[c][1,2,5]oxadiazol-4-amine], 0%. Turning to `O=C(O)c1ccccc1Nc1ccc([N+](=O)[O-])c2nonc12` [Compound 3i, 2-((7-Nitrobenzo[c][1,2,5]oxadiazol-4-yl)amino)benzoic acid], the inhibition at 100 µM is 8%. On the same count and under the same terms, the same measure for `O=[N+]([O-])c1ccc(Oc2ccccc2-c2ccccc2)c2nonc12` [Compound 3j, 4-([1,1′-Biphenyl]-2-yloxy)-7-nitrobenzo[c][1,2,5]oxadiazole]: 36%; for `O=C(O)c1cccc(Nc2ccc([N+](=O)[O-])c3nonc23)c1` [Compound 3m, 3-((7-Nitrobenzo[c][1,2,5]oxadiazol-4-yl)amino)benzoic acid]: 0%.

Still in this test, the particulars now being: Table 2; 100 μM compound; Myc-Max/DNA band intensity relative to control; read-out: Inhibition at 100 μM (%).
Regarding `CC(=O)Nc1ccc(Nc2ccccc2-c2ccccc2)c2nonc12` [Compound 5a, N-(7-([1,1′-Biphenyl]-2-ylamino)benzo[c][1,2,5]oxadiazol-4-yl)acetamide], the inhibition at 100 µM turned out to be 2%. On to `O=C(Nc1ccc(Nc2ccccc2-c2ccccc2)c2nonc12)C(F)(F)F` [Compound 5b, N-(7-([1,1′-Biphenyl]-2-ylamino)benzo[c][1,2,5]oxadiazol-4-yl)-2,2,2-trifluoroacetamide], for which the inhibition at 100 µM was found to be 25%. The same measure, in the same setting: to `COC(=O)Nc1ccc(Nc2ccccc2-c2ccccc2)c2nonc12` [Compound 5c, Methyl (7-([1,1′-biphenyl]-2-ylamino)benzo[c][1,2,5]oxadiazol-4-yl)carbamate] belongs 0%.

In the case of `O=C(O)CCC(=O)Nc1ccc(Nc2ccccc2-c2ccccc2)c2nonc12` [Compound 5d, 4-((7-([1,1′-Biphenyl]-2-ylamino)benzo[c][1,2,5]oxadiazol-4-yl)amino)-4-oxobutanoic acid], the inhibition at 100 µM came out at 17%.

The test is the same for the next values; noted with them: Table 10; 100 μM small-molecule, EMSA; read-out: % Inhibition of c-Myc-Max Dimerization.
Regarding `Cc1cccc(-c2cc(C(=O)O)ccc2Nc2ccc([N+](=O)[O-])c3nonc23)c1` [Compound 3j53-5], the inhibition at 100 µM stood at 16%. On the same count and under the same terms, to `O=C(O)c1ccc(Nc2ccc([N+](=O)[O-])c3nonc23)c(-c2ccccc2)c1` [Compound 3jc42] belongs 10%; to `O=C(O)c1ccc(Nc2ccc([N+](=O)[O-])c3nonc23)c(-c2ccccc2-c2ccccc2)c1` [Compound 3jc53-1], 18%; to `O=C(O)c1ccc(Nc2ccc([N+](=O)[O-])c3nonc23)c(-c2cccc(-c3ccccc3)c2)c1` [Compound 3jc53-2], 0%. On to `O=C(O)c1ccc(Nc2ccc([N+](=O)[O-])c3nonc23)c(-c2ccc(-c3ccccc3)cc2)c1` [Compound 3jc53-3], for which the inhibition at 100 µM is 41%. Same read-out and setting: the same measure for `Cc1ccccc1-c1cc(C(=O)O)ccc1Nc1ccc([N+](=O)[O-])c2nonc12` [Compound 3jc53-4]: 7%. Same read-out and setting: the same measure for `N#Cc1ccccc1-c1cc(C(=O)O)ccc1Nc1ccc([N+](=O)[O-])c2nonc12` [Compound 3jc53-7]: 44%; for `N#Cc1cccc(-c2cc(C(=O)O)ccc2Nc2ccc([N+](=O)[O-])c3nonc23)c1` [Compound 3jc53-8]: 23%.

As to `N#Cc1ccc(-c2cc(C(=O)O)ccc2Nc2ccc([N+](=O)[O-])c3nonc23)cc1` [Compound 3jc53-9], the inhibition at 100 µM worked out at 13%. The same measure, in the same setting: the same measure for `CCc1ccc(-c2cc(C(=O)O)ccc2Nc2ccc([N+](=O)[O-])c3nonc23)cc1` [Compound 3jc53-10]: 34%; for `CC(C)c1ccc(-c2cc(C(=O)O)ccc2Nc2ccc([N+](=O)[O-])c3nonc23)cc1` [Compound 3jc53-11]: 0%.

As to `CC(C)(C)c1ccc(-c2cc(C(=O)O)ccc2Nc2ccc([N+](=O)[O-])c3nonc23)cc1` [Compound 3jc53-12], the inhibition at 100 µM is 2%. Turning to `O=C(O)c1ccc(Nc2ccc([N+](=O)[O-])c3nonc23)c(-c2ccccc2O)c1` [Compound 3jc53-13], the inhibition at 100 µM is 0%. As for `COc1ccc(-c2cc(C(=O)O)ccc2Nc2ccc([N+](=O)[O-])c3nonc23)cc1` [Compound 3jc53-14], the inhibition at 100 µM was determined as 4%.

Take `O=C(O)c1ccc(-c2cc(C(=O)O)ccc2Nc2ccc([N+](=O)[O-])c3nonc23)cc1` [Compound 3jc53-15]: the inhibition at 100 µM was 6%. Still for that read-out and setting: to `Cc1ccccc1-c1cc(Nc2ccc([N+](=O)[O-])c3nonc23)ccc1C(=O)O` [Compound 3jc62-1] belongs 0%. For the molecule `Cc1cccc(-c2cc(Nc3ccc([N+](=O)[O-])c4nonc34)ccc2C(=O)O)c1` [Compound 3jc62-2], the inhibition at 100 µM came out at 0%. The same measure, in the same setting: the same measure for `Cc1ccc(-c2cc(Nc3ccc([N+](=O)[O-])c4nonc34)ccc2C(=O)O)cc1` [Compound 3jc62-3]: 0%; for `N#Cc1ccccc1-c1cc(Nc2ccc([N+](=O)[O-])c3nonc23)ccc1C(=O)O` [Compound 3jc62-4]: 0%; for `N#Cc1cccc(-c2cc(Nc3ccc([N+](=O)[O-])c4nonc34)ccc2C(=O)O)c1` [Compound 3jc62-5]: 8%.

For the molecule `N#Cc1ccc(-c2cc(Nc3ccc([N+](=O)[O-])c4nonc34)ccc2C(=O)O)cc1` [Compound 3jc62-6], the inhibition at 100 µM was determined as 25%.

On to `O=C(O)c1ccc(Nc2ccc([N+](=O)[O-])c3nonc23)cc1-c1ccccc1` [Compound 3jc62-7], for which the inhibition at 100 µM turned out to be 0%.

As for `O=C(O)c1ccc(Nc2ccc([N+](=O)[O-])c3nonc23)c(-c2ccc(C(F)(F)F)cc2)c1` [Compound 4jc23-6], the inhibition at 100 µM came to 0%.

Still in this test, the particulars now being: read-out: Inhibition at 100 μM (%), Table 1; 100 μM compound; Myc-Max/DNA band intensity relative to control.
As to `O=[N+]([O-])c1ccc(Nc2ccccc2)c2nonc12` [Compound 3a, 7-Nitro-N-phenylbenzo[c][1,2,5]oxadiazol-4-amine], the inhibition at 100 µM worked out at 2%. The same measure, in the same setting: to `O=[N+]([O-])c1ccc(Nc2ccc(-c3ccccc3)cc2)c2nonc12` [Compound 3n] belongs 28%; to `Cc1ccc(Nc2ccc([N+](=O)[O-])c3nonc23)cc1` [Compound 3o, 7-Nitro-N-(p-tolyl)benzo[c][1,2,5]oxadiazol-4-amine], 0%.

(Values after US9242944B2 (UNIVERSITY OF MARYLAND, BALTIMORE, priority 2013, dated 2016).)
